{"source": "patent US20260130395A1", "about": "“Water Dispersible Botanical Compositions” (Aquila Black Limited, priority 2021, published 2026)", "experiment": "Stability of cannabinoid compounds and Vitamin E components in Beverage 1 (AB White) by LCMSMS", "assay_type": "physicochemical", "settings": "for Stability of Plant-Derived Cannabinoid Compounds in AB White, 8° C.: AB White stored at 8° C.; for Stability of Plant-Derived Cannabinoid Compounds in AB White, 21-25° C.: AB White stored at 21-25° C.", "data": [{"compound": "C=C(C)[C@@H]1CCC(C)=C[C@H]1c1c(O)cc(CCCCC)c(C(=O)O)c1O", "note": "[CBDA, cannabidiolic acid]", "values": [{"measurement": "Stability of Plant-Derived Cannabinoid Compounds in AB White, 8° C.", "setting": "29 days", "value": 1.75, "unit": "µg/mL"}, {"measurement": "Stability of Plant-Derived Cannabinoid Compounds in AB White, 8° C.", "setting": "30 days", "value": 1.76, "unit": "µg/mL"}, {"measurement": "Stability of Plant-Derived Cannabinoid Compounds in AB White, 8° C.", "setting": "60 days", "value": 1.70, "unit": "µg/mL"}, {"measurement": "Stability of Plant-Derived Cannabinoid Compounds in AB White, 8° C.", "setting": "90 days", "value": 1.70, "unit": "µg/mL"}, {"measurement": "Stability of Plant-Derived Cannabinoid Compounds in AB White, 8° C.", "setting": "120 days", "value": 1.67, "unit": "µg/mL"}, {"measurement": "Stability of Plant-Derived Cannabinoid Compounds in AB White, 8° C.", "setting": "150 days", "value": 1.71, "unit": "µg/mL"}, {"measurement": "Stability of Plant-Derived Cannabinoid Compounds in AB White, 8° C.", "setting": "180 days", "value": 1.75, "unit": "µg/mL"}, {"measurement": "Stability of Plant-Derived Cannabinoid Compounds in AB White, 8° C.", "setting": "210 days", "value": 1.68, "unit": "µg/mL"}, {"measurement": "Stability of Plant-Derived Cannabinoid Compounds in AB White, 8° C.", "setting": "240 days", "value": 1.70, "unit": "µg/mL"}, {"measurement": "Stability of Plant-Derived Cannabinoid Compounds in AB White, 8° C.", "setting": "270 days", "value": 1.70, "unit": "µg/mL"}, {"measurement": "Stability of Plant-Derived Cannabinoid Compounds in AB White, 8° C.", "setting": "300 days", "value": 1.69, "unit": "µg/mL"}, {"measurement": "Stability of Plant-Derived Cannabinoid Compounds in AB White, 8° C.", "setting": "330 days", "value": 1.70, "unit": "µg/mL"}, {"measurement": "Stability of Plant-Derived Cannabinoid Compounds in AB White, 8° C.", "setting": "360 days", "value": 1.70, "unit": "µg/mL"}, {"measurement": "Stability of Plant-Derived Cannabinoid Compounds in AB White, 8° C.", "setting": "390 days", "value": 1.70, "unit": "µg/mL"}, {"measurement": "Stability of Plant-Derived Cannabinoid Compounds in AB White, 8° C.", "setting": "420 days", "value": 1.67, "unit": "µg/mL"}, {"measurement": "Stability of Plant-Derived Cannabinoid Compounds in AB White, 8° C.", "setting": "450 days", "value": 1.68, "unit": "µg/mL"}, {"measurement": "Stability of Plant-Derived Cannabinoid Compounds in AB White, 8° C.", "setting": "480 days", "value": 1.66, "unit": "µg/mL"}, {"measurement": "Stability of Plant-Derived Cannabinoid Compounds in AB White, 8° C.", "setting": "510 days", "value": 1.61, "unit": "µg/mL"}, {"measurement": "Stability of Plant-Derived Cannabinoid Compounds in AB White, 8° C.", "setting": "540 days", "value": 1.61, "unit": "µg/mL"}, {"measurement": "Stability of Plant-Derived Cannabinoid Compounds in AB White, 8° C.", "setting": "570 days", "value": 1.60, "unit": "µg/mL"}, {"measurement": "Stability of Plant-Derived Cannabinoid Compounds in AB White, 21-25° C.", "setting": "0 days", "value": 1.75, "unit": "µg/mL"}, {"measurement": "Stability of Plant-Derived Cannabinoid Compounds in AB White, 21-25° C.", "setting": "1 days", "value": 1.76, "unit": "µg/mL"}, {"measurement": "Stability of Plant-Derived Cannabinoid Compounds in AB White, 21-25° C.", "setting": "2 days", "value": 1.70, "unit": "µg/mL"}, {"measurement": "Stability of Plant-Derived Cannabinoid Compounds in AB White, 21-25° C.", "setting": "3 days", "value": 1.71, "unit": "µg/mL"}, {"measurement": "Stability of Plant-Derived Cannabinoid Compounds in AB White, 21-25° C.", "setting": "5 days", "value": 1.69, "unit": "µg/mL"}, {"measurement": "Stability of Plant-Derived Cannabinoid Compounds in AB White, 21-25° C.", "setting": "8 days", "value": 1.77, "unit": "µg/mL"}, {"measurement": "Stability of Plant-Derived Cannabinoid Compounds in AB White, 21-25° C.", "setting": "9 days", "value": 1.74, "unit": "µg/mL"}, {"measurement": "Stability of Plant-Derived Cannabinoid Compounds in AB White, 21-25° C.", "setting": "10 days", "value": 1.73, "unit": "µg/mL"}, {"measurement": "Stability of Plant-Derived Cannabinoid Compounds in AB White, 21-25° C.", "setting": "11 days", "value": 1.76, "unit": "µg/mL"}, {"measurement": "Stability of Plant-Derived Cannabinoid Compounds in AB White, 21-25° C.", "setting": "12 days", "value": 1.74, "unit": "µg/mL"}, {"measurement": "Stability of Plant-Derived Cannabinoid Compounds in AB White, 21-25° C.", "setting": "15 days", "value": 1.69, "unit": "µg/mL"}, {"measurement": "Stability of Plant-Derived Cannabinoid Compounds in AB White, 21-25° C.", "setting": "16 days", "value": 1.75, "unit": "µg/mL"}, {"measurement": "Stability of Plant-Derived Cannabinoid Compounds in AB White, 21-25° C.", "setting": "17 days", "value": 1.72, "unit": "µg/mL"}, {"measurement": "Stability of Plant-Derived Cannabinoid Compounds in AB White, 21-25° C.", "setting": "18 days", "value": 1.75, "unit": "µg/mL"}, {"measurement": "Stability of Plant-Derived Cannabinoid Compounds in AB White, 21-25° C.", "setting": "19 days", "value": 1.70, "unit": "µg/mL"}, {"measurement": "Stability of Plant-Derived Cannabinoid Compounds in AB White, 21-25° C.", "setting": "22 days", "value": 1.70, "unit": "µg/mL"}, {"measurement": "Stability of Plant-Derived Cannabinoid Compounds in AB White, 21-25° C.", "setting": "23 days", "value": 1.73, "unit": "µg/mL"}, {"measurement": "Stability of Plant-Derived Cannabinoid Compounds in AB White, 21-25° C.", "setting": "24 days", "value": 1.70, "unit": "µg/mL"}, {"measurement": "Stability of Plant-Derived Cannabinoid Compounds in AB White, 21-25° C.", "setting": "25 days", "value": 1.73, "unit": "µg/mL"}, {"measurement": "Stability of Plant-Derived Cannabinoid Compounds in AB White, 21-25° C.", "setting": "26 days", "value": 1.75, "unit": "µg/mL"}, {"measurement": "Stability of Plant-Derived Cannabinoid Compounds in AB White, 21-25° C.", "setting": "29 days", "value": 1.76, "unit": "µg/mL"}, {"measurement": "Stability of Plant-Derived Cannabinoid Compounds in AB White, 21-25° C.", "setting": "30 days", "value": 1.71, "unit": "µg/mL"}, {"measurement": "Stability of Plant-Derived Cannabinoid Compounds in AB White, 21-25° C.", "setting": "60 days", "value": 1.68, "unit": "µg/mL"}, {"measurement": "Stability of Plant-Derived Cannabinoid Compounds in AB White, 21-25° C.", "setting": "90 days", "value": 1.67, "unit": "µg/mL"}, {"measurement": "Stability of Plant-Derived Cannabinoid Compounds in AB White, 21-25° C.", "setting": "120 days", "value": 1.66, "unit": "µg/mL"}, {"measurement": "Stability of Plant-Derived Cannabinoid Compounds in AB White, 21-25° C.", "setting": "150 days", "value": 1.64, "unit": "µg/mL"}, {"measurement": "Stability of Plant-Derived Cannabinoid Compounds in AB White, 21-25° C.", "setting": "180 days", "value": 1.69, "unit": "µg/mL"}, {"measurement": "Stability of Plant-Derived Cannabinoid Compounds in AB White, 21-25° C.", "setting": "210 days", "value": 1.73, "unit": "µg/mL"}, {"measurement": "Stability of Plant-Derived Cannabinoid Compounds in AB White, 21-25° C.", "setting": "240 days", "value": 1.73, "unit": "µg/mL"}, {"measurement": "Stability of Plant-Derived Cannabinoid Compounds in AB White, 21-25° C.", "setting": "270 days", "value": 1.71, "unit": "µg/mL"}, {"measurement": "Stability of Plant-Derived Cannabinoid Compounds in AB White, 21-25° C.", "setting": "300 days", "value": 1.73, "unit": "µg/mL"}, {"measurement": "Stability of Plant-Derived Cannabinoid Compounds in AB White, 21-25° C.", "setting": "330 days", "value": 1.72, "unit": "µg/mL"}, {"measurement": "Stability of Plant-Derived Cannabinoid Compounds in AB White, 21-25° C.", "setting": "360 days", "value": 1.69, "unit": "µg/mL"}, {"measurement": "Stability of Plant-Derived Cannabinoid Compounds in AB White, 21-25° C.", "setting": "390 days", "value": 1.67, "unit": "µg/mL"}, {"measurement": "Stability of Plant-Derived Cannabinoid Compounds in AB White, 21-25° C.", "setting": "420 days", "value": 1.64, "unit": "µg/mL"}, {"measurement": "Stability of Plant-Derived Cannabinoid Compounds in AB White, 21-25° C.", "setting": "450 days", "value": 1.70, "unit": "µg/mL"}, {"measurement": "Stability of Plant-Derived Cannabinoid Compounds in AB White, 21-25° C.", "setting": "480 days", "value": 1.63, "unit": "µg/mL"}, {"measurement": "Stability of Plant-Derived Cannabinoid Compounds in AB White, 21-25° C.", "setting": "510 days", "value": 1.66, "unit": "µg/mL"}, {"measurement": "Stability of Plant-Derived Cannabinoid Compounds in AB White, 21-25° C.", "setting": "540 days", "value": 1.63, "unit": "µg/mL"}, {"measurement": "Stability of Plant-Derived Cannabinoid Compounds in AB White, 21-25° C.", "setting": "570 days", "value": 1.61, "unit": "µg/mL"}]}]}
